Target: T1, human M4 muscarinic acetylcholine receptor (Homo sapiens, UniProt P08173)
T1 construct: expressed in transfected cells; host or cells: CHO-K1
T1 sequence (P08173 1-479): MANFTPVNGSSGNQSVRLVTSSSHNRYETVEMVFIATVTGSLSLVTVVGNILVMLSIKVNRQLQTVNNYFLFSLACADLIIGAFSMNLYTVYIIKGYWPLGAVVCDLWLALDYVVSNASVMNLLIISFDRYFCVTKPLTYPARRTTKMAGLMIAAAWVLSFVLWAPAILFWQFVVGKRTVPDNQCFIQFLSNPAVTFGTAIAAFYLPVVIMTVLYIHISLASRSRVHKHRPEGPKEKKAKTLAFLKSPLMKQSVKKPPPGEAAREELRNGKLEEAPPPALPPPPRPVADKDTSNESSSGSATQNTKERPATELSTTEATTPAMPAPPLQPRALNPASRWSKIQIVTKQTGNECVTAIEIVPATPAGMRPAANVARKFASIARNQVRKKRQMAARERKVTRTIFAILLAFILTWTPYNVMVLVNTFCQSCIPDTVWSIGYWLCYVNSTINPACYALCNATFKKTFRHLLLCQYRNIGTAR
Assay: human FLIPR-based M4 PAM assay (Ca2+ mobilization, CHO-K1 cells with human M4 receptor and Gαqi5)
Format: cell-based
Conditions: acetylcholine at 20% of maximum response, read-out: M4 PAM IP
Procedure, shortened: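 CHO-K1 cells stably expressing human M4 and chimeric Gαqi5 were dye-loaded ~1 h at 37 °C and read for Ca2+ fluorescence. Compound followed by acetylcholine at an EC20 (sometimes an EC70 third addition); inflection point from a 4-parameter logistic fit.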

EC50	Structure (SMILES)
1810 nM	Cc1cc2c(nc1N1CCC(OCC3CCOC3)CC1)CNC2=O (stereo not shown) [Example 177, 3-methyl-2-(4-((tetrahydrofuran-3-yl)methoxy)piperidin-1-yl)-6,7-dihydro-5H-pyrrolo[3,4-b]pyridin-5-one]
2480 nM	Cc1cc2c(nc1N1CCC(OCC3(C)CCCC3)CC1)CNC2=O [Example 178, 3-methyl-2-(4-((1-methylcyclopentyl)meth-oxy)piperidin-1-yl)-6,7-dihydro-5H-pyrrolo[3,4-b]pyridin-5-one]
18 nM	Cc1cc2c(nc1N1CC[C@@H](Oc3ccc4c(c3)CCOC4)[C@@H](F)C1)CNC2=O [Example 178A, 2-((3S,4R)-3-fluoro-4-(isochroman-6-yloxy)piperidin-1-yl)-3-methyl-6,7-dihydro-5H-pyrrolo[3,4-b]pyridin-5-one]
18 nM	Cc1cc2c(nc1N1CC[C@@H](Oc3ccc4c(c3)COCC4)[C@@H](F)C1)CNC2=O [Example 178B, 2-((3S,4R)-3-fluoro-4-(isochroman-7-yloxy)piperidin-1-yl)-3-methyl-6,7-dihydro-5H-pyrrolo[3,4-b]pyridin-5-one]
1650 nM	Cc1cc2c(nc1N1CCC(OCC3(F)CCCC3)CC1)CNC2=O [Example 180, 2-(4-((1-fluorocyclopentyl)meth-oxy)piperidin-1-yl)-3-methyl-6,7-dihydro-5H-pyrrolo[3,4-b]pyridin-5-one]
3790 nM	Cc1cc2c(nc1N1CCC(OCC(C)(C)C)CC1)CNC2=O [Example 182, 3-methyl-2-(4-(neopentyloxy)piperidin-1-yl)-6,7-dihydro-5H-pyrrolo[3,4-b]pyridin-5-one]
473 nM	Cc1cc2c(nc1N1CCC(Oc3ccc4nccn4c3)CC1)CNC2=O [Example 182A, 2-(4-(imidazo[1,2-a]pyridin-6-yloxy)piperidin-1-yl)-3-methyl-6,7-dihydro-5H-pyrrolo[3,4-b]pyridin-5-one]
4780 nM	Cc1cc2c(nc1N1CCC(OCc3ncco3)CC1)CNC2=O [Example 183, 3-methyl-2-(4-(oxazol-2-ylmethoxy)piperidin-1-yl)-6,7-dihydro-5H-pyrrolo[3,4-b]pyridin-5-one]
246 nM	Cc1cc2c(nc1N1CCC(OCC3(C)CCC3)CC1)CNC2=O [Example 184, 3-methyl-2-(4-((1-methylcyclobutyl)meth-oxy)piperidin-1-yl)-6,7-dihydro-5H-pyrrolo[3,4-b]pyridin-5-one]
77 nM	CCC1(COC2CCN(c3nc4c(cc3C)C(=O)NC4)CC2)CC1 [Example 186, 2-(4-((1-ethylcyclopropyl)meth-oxy)piperidin-1-yl)-3-methyl-6,7-dihydro-5H-pyrrolo[3,4-b]pyridin-5-one]
223 nM	Cc1cc2c(nc1N1CCC(OCC34CC(C3)C4)CC1)CNC2=O [Example 187, 2-(4-(bicyclo[1.1.1]pentan-1-ylmethoxy)piperidin-1-yl)-3-methyl-6,7-dihydro-5H-pyrrolo[3,4-b]pyridin-5-one]
295 nM	CCc1cc2c(nc1N1CCC(OCC3(C)CC3(F)F)CC1)CNC2=O (stereo not shown) [Example 187A, 2-(4-((2,2-difluoro-1-methylcyclopropyl)meth-oxy)piperidin-1-yl)-3-ethyl-6,7-dihydro-5H-pyrrolo[3,4-b]pyridin-5-one]
1220 nM	Cc1cc2c(nc1N1CCC(OCC(C)C(F)(F)F)CC1)CNC2=O (stereo not shown) [Example 188, 3-methyl-2-(4-(3,3,3-trifluoro-2-methylpropoxy)piperidin-1-yl)-6,7-dihydro-5H-pyrrolo[3,4-b]pyridin-5-one]
265 nM	Cc1cc2c(nc1N1CCC(OCC3(C(F)(F)F)CC3)CC1)CNC2=O [Example 189, 3-methyl-2-(4-((1-(trifluoromethyl)cyclo-propyl)methoxy)piperidin-1-yl)-6,7-dihydro-5H-pyrrolo[3,4-b]pyridin-5-one]
5610 nM	COC(=O)c1c(C)c(N2CCC(Oc3ccc(OC)nc3)CC2)nc2c1C(=O)NC2 [Example 190, methyl 2-(4-((6-methoxypyridin-3-yl)oxy)piperidin-1-yl)-3-methyl-5-oxo-6,7-dihydro-5H-pyrrolo[3,4-b]pyridine-4-carboxylate]
820 nM	Cc1cc2c(nc1N1CCC(OCc3cnn(C)c3)CC1)CNC2=O [Example 190A, 3-methyl-2-(4-((1-methyl-1H-pyrazol-4-yl)methoxy)piperidin-1-yl)-6,7-dihydro-5H-pyrrolo[3,4-b]pyridin-5-one]
492 nM	Cc1cc2c(nc1N1CCC(OCC3CCCCC3)CC1)CNC2=O [Example 191, 2-(4-(cyclohexylmethoxy)piperidin-1-yl)-3-methyl-6,7-dihydro-5H-pyrrolo[3,4-b]pyridin-5-one]

EC50	Structure (SMILES)
1220 nM	COC1(COC2CCN(c3nc4c(cc3C)C(=O)NC4)CC2)CC1 [Example 193, 2-(4-((1-methoxycyclopropyl)methoxy)piperidin-1-yl)-3-methyl-6,7-dihydro-5H-pyrrolo[3,4-b]pyridin-5-one]
532 nM	Cc1cc2c(nc1N1CCC(Oc3cnc4c(c3)CCCO4)CC1)CNC2=O [Example 194, 2-(4-((3,4-dihydro-2H-pyrano[2,3-b]pyridin-6-yl)oxy)piperidin-1-yl)-3-methyl-6,7-dihydro-5H-pyrrolo[3,4-b]pyridin-5-one]
20 nM	Cc1c(N2CC[C@@H](Oc3ccc4c(c3)COCC4)[C@@H](F)C2)nc2c(c1C)C(=O)NC2 [Example 194A, 2-((3S,4R)-3-fluoro-4-(isochroman-7-yloxy)piperidin-1-yl)-3,4-dimethyl-6,7-dihydro-5H-pyrrolo[3,4-b]pyridin-5-one]
68 nM	COCc1ccc(OC2CCN(c3nc4c(cc3C)C(=O)NC4)CC2)cc1 [Example 195, 2-(4-(4-(methoxymethyl)phen-oxy)piperidin-1-yl)-3-methyl-6,7-dihydro-5H-pyrrolo[3,4-b]pyridin-5-one]
22 nM	Cc1cc2c(nc1N1CC[C@@H](Oc3ccc(F)cc3)[C@@H](F)C1)CNC2=O [Example 196, 2-((3S,4R)-3-fluoro-4-(4-fluorophenoxy)piperidin-1-yl)-3-methyl-6,7-dihydro-5H-pyrrolo[3,4-b]pyridin-5-one]
6070 nM	Cc1cc2c(nc1N1CCC(Oc3cnc4[nH]nc(C)c4c3)CC1)CNC2=O [Example 197, 3-methyl-2-(4-((3-methyl-1H-pyrazolo[3,4-b]pyridin-5-yl)oxy)piperidin-1-yl)-6,7-dihydro-5H-pyrrolo[3,4-b]pyridin-5-one]
285 nM	Cc1cc2c(nc1N1CCC(Oc3ccc4ncnn4c3)CC1)CNC2=O [Example 197A, 2-(4-([1,2,4]triazolo[1,5-a]pyridin-6-yloxy)piperidin-1-yl)-3-methyl-6,7-dihydro-5H-pyrrolo[3,4-b]pyridin-5-one]
18 nM	Cc1cc2c(nc1N1CCC(Oc3ccc4c(c3)OCC4)CC1)CNC2=O [Example 198, 2-(4-((2,3-dihydrobenzofuran-6-yl)oxy)piperidin-1-yl)-3-methyl-6,7-dihydro-5H-pyrrolo[3,4-b]pyridin-5-one]
110 nM	CCc1cc2c(nc1N1CCC(Oc3ccc4c(c3)OCC4)CC1)CNC2=O [Example 198A, 2-(4-((2,3-dihydrobenzofuran-6-yl)oxy)piperidin-1-yl)-3-ethyl-6,7-dihydro-5H-pyrrolo[3,4-b]pyridin-5-one]
60 nM	Cc1cc2c(nc1N1CCC(Oc3ccc4c(c3)CO[C@@H]4C)CC1)CNC2=O [Example 199A, (R)-3-methyl-2-(4-((1-methyl-1,3-dihydro-2-benzofuran-5-yl)oxy)piperidin-1-yl)-6,7-dihydro-5H-pyrrolo[3,4-b]pyridin-5-one]
72 nM	Cc1cc2c(nc1N1CCC(Oc3ccc4c(c3)CO[C@H]4C)CC1)CNC2=O [Example 199B, (S)-3-methyl-2-(4-((1-methyl-1,3-dihydro-2-benzofuran-5-yl)oxy)piperidin-1-yl)-6,7-dihydro-5H-pyrrolo[3,4-b]pyridin-5-one]
96 nM	CCc1cc2c(nc1N1CCC(Oc3ccc4c(c3)COCC4)CC1)CNC2=O [Example 200, 3-ethyl-2-(4-(isochroman-7-yloxy)piperidin-1-yl)-6,7-dihydro-5H-pyrrolo[3,4-b]pyridin-5-one]
58 nM	CCc1cc2c(nc1N1CCC(Oc3ccc4c(c3)CCOC4)CC1)CNC2=O [Example 200A, 3-ethyl-2-(4-(isochroman-6-yloxy)piperidin-1-yl)-6,7-dihydro-5H-pyrrolo[3,4-b]pyridin-5-one]
230 nM	CCc1cc2c(nc1N1CCC(Oc3cccnc3)CC1)CNC2=O [Example 201, 3-ethyl-2-(4-(pyridin-3-yloxy)piperidin-1-yl)-6,7-dihydro-5H-pyrrolo[3,4-b]pyridin-5-one]
68 nM	Cc1cc2c(nc1N1CCC(Oc3cnc4c(c3)CCO4)CC1)CNC2=O [Example 201A, 2-(4-((2,3-dihydrofuro[2,3-b]pyridin-5-yl)oxy)piperidin-1-yl)-3-methyl-6,7-dihydro-5H-pyrrolo[3,4-b]pyridin-5-one]
148 nM	CCc1cc2c(nc1N1CCC(Oc3ccccc3)CC1)CNC2=O [Example 202, 3-ethyl-2-(4-phenoxypiperidin-1-yl)-6,7-dihydro-5H-pyrrolo[3,4-b]pyridin-5-one]

Structure (SMILES)	EC50
Cc1cc2c(nc1N1CCC(OCC(C)C)CC1)CNC2=O [Example 192, 2-(4-isobutoxypiperidin-1-yl)-3-methyl-6,7-dihydro-5H-pyrrolo[3,4-b]pyridin-5-one]	310 nM
